Results as given in ChEMBL document CHEMBL1201862, “PubChem BioAssay data set” (2004).
The source made the active and inactive calls.

Key:
[1] = target: T1, Short transient receptor potential channel 4 (Mus musculus, UniProt Q9QUQ5); experiment: mouse TRPC4 channel activators, dose response, cell-based, HEK293 TRPC4/mu-opioid, Fluo-4 calcium (AID 434937); format: functional
T1 sequence (Q9QUQ5 whole entry): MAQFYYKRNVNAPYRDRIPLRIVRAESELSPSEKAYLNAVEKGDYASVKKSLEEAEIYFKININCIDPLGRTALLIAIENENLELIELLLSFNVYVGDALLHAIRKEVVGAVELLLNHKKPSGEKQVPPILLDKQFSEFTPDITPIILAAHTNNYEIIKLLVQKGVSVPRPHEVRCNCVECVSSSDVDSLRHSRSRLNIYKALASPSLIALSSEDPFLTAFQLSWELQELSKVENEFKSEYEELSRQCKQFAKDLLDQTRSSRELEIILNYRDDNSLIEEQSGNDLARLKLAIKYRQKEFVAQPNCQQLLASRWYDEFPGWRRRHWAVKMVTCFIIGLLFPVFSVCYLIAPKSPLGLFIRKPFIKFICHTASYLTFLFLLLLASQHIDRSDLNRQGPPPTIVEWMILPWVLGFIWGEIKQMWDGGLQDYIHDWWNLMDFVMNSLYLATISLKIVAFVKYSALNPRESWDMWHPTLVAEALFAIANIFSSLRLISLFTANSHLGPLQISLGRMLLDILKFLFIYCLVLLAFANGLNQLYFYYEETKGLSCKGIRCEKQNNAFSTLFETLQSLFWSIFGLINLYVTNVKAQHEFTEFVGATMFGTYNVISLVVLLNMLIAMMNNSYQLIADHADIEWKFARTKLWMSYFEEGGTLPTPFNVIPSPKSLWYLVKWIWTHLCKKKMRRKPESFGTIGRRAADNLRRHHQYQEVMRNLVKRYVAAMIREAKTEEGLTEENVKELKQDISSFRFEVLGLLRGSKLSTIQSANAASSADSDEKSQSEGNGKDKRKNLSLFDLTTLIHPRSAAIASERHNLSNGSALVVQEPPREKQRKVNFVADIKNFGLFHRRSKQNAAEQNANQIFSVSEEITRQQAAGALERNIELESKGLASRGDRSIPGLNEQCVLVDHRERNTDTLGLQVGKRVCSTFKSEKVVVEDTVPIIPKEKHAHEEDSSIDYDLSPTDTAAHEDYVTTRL

[2] = target: T1, Short transient receptor potential channel 4; experiment: mouse TRPC4 channel inhibitors, dose response, cell-based, HEK293 TRPC4/mu-opioid, Fluo-4 calcium (AID 434942); format: functional;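 further: potency of inhibitors blocking the TRPC4 calcium response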
[3] = cells; format: functional, cell-based
[4] = target: T2, Trace amine-associated receptor 1 (Homo sapiens, UniProt Q96RJ0); experiment: Fluorescence-based cell-based high throughput dose response assay to identify agonists of the human trace amine associated receptor 1 (TAAR1).; format: functional
T2 sequence (Q96RJ0 whole entry): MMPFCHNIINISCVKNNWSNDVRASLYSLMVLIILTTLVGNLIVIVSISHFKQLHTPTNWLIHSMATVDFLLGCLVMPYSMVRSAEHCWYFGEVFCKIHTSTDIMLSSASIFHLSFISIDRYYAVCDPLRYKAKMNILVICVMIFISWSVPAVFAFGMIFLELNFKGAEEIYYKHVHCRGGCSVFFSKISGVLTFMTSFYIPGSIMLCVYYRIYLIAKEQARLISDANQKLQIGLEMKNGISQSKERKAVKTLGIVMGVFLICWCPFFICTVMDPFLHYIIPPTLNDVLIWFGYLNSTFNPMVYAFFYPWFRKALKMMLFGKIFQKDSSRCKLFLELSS

[5] = cells; format: functional, cell-based; remark: listed apart in the source
[6] = target: T2, Trace amine-associated receptor 1; experiment: Counterscreen for agonists of the human trace amine associated receptor 1 (hTAAR1): Fluorescence-based cell-based high throughput dose response assay to identify hTAAR1 agonist that also desensitize TAAR1 receptor response.; format: functional
[7] = Counterscreen for […] of the human trace amine associated receptor 1 (TAAR1): Fluorescence-based cell-based high throughput dose response assay to identify nonselective Ga16 agonists.; format: functional
[8] = target: T2, Trace amine-associated receptor 1; experiment: Counterscreen for antagonists of the human trace amine associated receptor 1 (hTAAR1): Fluorescence-based cell-based high throughput dose response assay to identify TAAR1 Agonists.; format: functional
[9] = target: T2, Trace amine-associated receptor 1; experiment: Fluorescence-based cell-based high throughput dose response assay to identify antagonists of the human trace amine associated receptor 1 (TAAR1).; format: functional
[10] = Counterscreen for antagonists of the human trace amine associated receptor 1 (hTAAR1): Fluorescence-based cell-based high throughput dose response assay to identify nonselective Ga16 antagonists.; format: functional
[11] = target: Fructose-bisphosphate aldolase (Mycobacterium tuberculosis, UniProt P9WQA3); experiment: Fluorescence-based biochemical high throughput dose response assay for inhibitors of the fructose-bisphosphate aldolase (FBA) of M. tuberculosis.; format: functional
Sequence of Fructose-bisphosphate aldolase (P9WQA3 whole entry): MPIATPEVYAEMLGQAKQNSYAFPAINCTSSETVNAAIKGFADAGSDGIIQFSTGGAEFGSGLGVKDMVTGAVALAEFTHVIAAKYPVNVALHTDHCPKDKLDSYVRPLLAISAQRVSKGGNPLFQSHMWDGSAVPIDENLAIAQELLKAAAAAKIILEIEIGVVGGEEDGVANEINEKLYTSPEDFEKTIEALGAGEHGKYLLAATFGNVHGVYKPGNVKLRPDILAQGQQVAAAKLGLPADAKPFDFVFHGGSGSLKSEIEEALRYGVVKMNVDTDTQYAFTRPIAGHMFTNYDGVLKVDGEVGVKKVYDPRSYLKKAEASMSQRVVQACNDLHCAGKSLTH

[12] = system: A549; experiment: A549 cell toxicity, dose response, cytotoxicity control, plate reader, cherry-pick samples (AID 687028); format: functional, cell-based; details: Homo sapiens
[13] = HeLa cell cytotoxicity, dose response, cytotoxicity control, 24 h, plate reader, dry powder (AID 686928); format: functional, cell-based

In the case of `OC(CNC1CCCc2ccccc21)COc1c(Cl)cccc1Cl` (stereo not drawn), the EC50 [1] is reported as 5.96 µM (active), the EC50 [2] is reported as 1.33 µM (active) and the EC50 [3] is reported as 11.7 µM (inactive). The EC50 [4] was 1.57 µM (active), the IC50 [5] was 13.9 µM (inactive) and the IC50 [6] was 8.84 µM (active).

With `Cc1ccc(CSCC(=O)Nc2cc(S(=O)(=O)N3CCOCC3)ccc2OCC(F)(F)F)cc1` the EC50 [7] was > 29.9 µM (inactive), the EC50 [8] was > 29.9 µM (inactive) and the IC50 [9] was 1.25 µM (active). The IC50 [10] was > 29.9 µM (inactive).

With `COc1cccc(/C=C/c2nc(S(=O)(=O)c3ccccc3)c(N3CCC(C(N)=O)CC3)o2)c1` the IC50 [11] was 676 nM (active).

For `C[C@H](CO)N1C[C@H](C)[C@H](CN(C)C(=O)Nc2ccc(C(F)(F)F)cc2)OCCCC[C@H](C)Oc2ccc(NS(=O)(=O)c3ccc(F)cc3)cc2C1=O`, the AC50 [12] was 33.6 µM (active).

For `Cc1ccc(-n2cnc(=O)c3ccccc32)cc1Cl`, the AC50 [13] was > 160 µM (inactive).
